By pIC50 is commonly meant the IC50 on a negative log10 scale, so that one unit is a factor of ten.

These results are taken from patent US5972942A, “Inhibitors of farnesyl-protein transferase” (Merck & Co., Inc., priority 1997, dated 1999).

pIC50: −log10 of the molar value. Structures can show the parent of a compound that is named as a salt.

The assay has as its target T1, human FPTase (Homo sapiens, UniProt P49354+P49356).
T1 construct: made in house
The assay is described as follows: In vitro inhibition of ras farnesyl transferase (human FPTase assay). Type of assay: biochemical. The note with it: 100 nM Ras-CVIM, [3H]-farnesyl diphosphate, 30 min, read-out: IC50, inhibitory activity against human FPTase.

T1 sequence (P49356 whole entry, one chain of several): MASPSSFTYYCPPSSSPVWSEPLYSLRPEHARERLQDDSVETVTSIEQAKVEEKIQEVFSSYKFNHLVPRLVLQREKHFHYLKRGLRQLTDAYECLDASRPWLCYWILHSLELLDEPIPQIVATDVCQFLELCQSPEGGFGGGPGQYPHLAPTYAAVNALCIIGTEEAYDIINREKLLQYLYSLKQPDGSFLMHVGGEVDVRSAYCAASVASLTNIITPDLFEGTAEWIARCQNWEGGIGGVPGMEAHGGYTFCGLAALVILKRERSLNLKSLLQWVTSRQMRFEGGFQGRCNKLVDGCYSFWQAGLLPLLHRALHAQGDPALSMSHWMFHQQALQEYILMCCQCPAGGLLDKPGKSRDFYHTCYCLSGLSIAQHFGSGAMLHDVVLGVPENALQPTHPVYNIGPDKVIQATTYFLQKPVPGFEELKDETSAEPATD

Regarding `CCCC[C@H]1CN(CC(F)(F)F)C(=O)CN1Cc1cncn1Cc1ccc(C#N)cc1` [Example 1, 2(S)-n-Butyl-1-[1-(4-cyanobenzyl)-5-imidazolylmethyl]-4-(2,2,2-trifluoroethyl)piperazin-5-one dihydrochloride], the pIC50 is at least 4.30.
